Results taken from ChEMBL document CHEMBL3885881, “DrugMatrix”.

Species on record: Rattus norvegicus
Assay: DrugMatrix - Regimen: Daily Repeat
Format: toxicity, organism-based, Sprague-Dawley
Parameters: regimen Daily Repeat, gender Male, age 6-8 weeks
Details: in vivo, po, 620 mg/kg, route oral GAVAGE, dose level High, vehicle 100 % WATER; for BASOPHIL / EOSINOPHIL / ERYTHROCYTE COUNT / HEMATOCRIT / HEMOGLOBIN / LEUKOCYTE COUNT / LYMPHOCYTE / MEAN CORPUSCULAR HEMOGLOBIN / MEAN CORPUSCULAR HEMOGLOBIN CONCENTRATION / MEAN CORPUSCULAR VOLUME / MONOCYTE / NEUTROPHIL / PLATELET COUNT: tissue Blood; for ALANINE AMINOTRANSFERASE / ALBUMIN / ALKALINE PHOSPHATASE / ASPARTATE AMINOTRANSFERASE / BLOOD UREA NITROGEN / CARBON DIOXIDE / CHLORIDE / CHOLESTEROL / CREATINE PHOSPHOKINASE / CREATININE / GLUCOSE / LACTATE DEHYDROGENASE / LIPASE / PHOSPHORUS / POTASSIUM / SODIUM / TOTAL BILIRUBIN / TOTAL PROTEIN / URIC ACID: tissue Plasma

OCCNCCO [DIETHANOLAMINE]
BASOPHIL (72 h, time 3 day): 0.67% | EOSINOPHIL (72 h, time 3 day): 0.37% | ERYTHROCYTE COUNT (72 h, time 3 day): 6.14 x10E6/uL | HEMATOCRIT (72 h, time 3 day): 41.37% | HEMOGLOBIN (72 h, time 3 day): 13.23 G/DL | LEUKOCYTE COUNT (72 h, time 3 day): 8.17 x10E3/uL | LYMPHOCYTE (72 h, time 3 day): 87.67% | MEAN CORPUSCULAR HEMOGLOBIN (72 h, time 3 day): 21.6 pg | MEAN CORPUSCULAR HEMOGLOBIN CONCENTRATION (72 h, time 3 day): 32.1 G/DL | MEAN CORPUSCULAR VOLUME (72 h, time 3 day): 67.4 fL | MONOCYTE (72 h, time 3 day): 2.03% | NEUTROPHIL (72 h, time 3 day): 6.8% | PLATELET COUNT (72 h, time 3 day): 1227 x10E3/uL | ALANINE AMINOTRANSFERASE (72 h, time 3 day): 45.67 u/L | ALBUMIN (72 h, time 3 day): 4.33 G/DL | ALKALINE PHOSPHATASE (72 h, time 3 day): 468 u/L | ASPARTATE AMINOTRANSFERASE (72 h, time 3 day): 125.67 u/L | BLOOD UREA NITROGEN (72 h, time 3 day): 18 mg/dL | CARBON DIOXIDE (72 h, time 3 day): 24.33 mmol/L | CHLORIDE (72 h, time 3 day): 111 MEQ/L | CHOLESTEROL (72 h, time 3 day): 75 mg/dL | CREATINE PHOSPHOKINASE (72 h, time 3 day): 164.33 u/L | CREATININE (72 h, time 3 day): 0.5 mg/dL | GLUCOSE (72 h, time 3 day): 181.67 mg/dL | LACTATE DEHYDROGENASE (72 h, time 3 day): 102.67 u/L | LIPASE (72 h, time 3 day): 21.33 u/L | PHOSPHORUS (72 h, time 3 day): 13.47 mg/dL | POTASSIUM (72 h, time 3 day): 6.33 MEQ/L | SODIUM (72 h, time 3 day): 154.33 MEQ/L | TOTAL BILIRUBIN (72 h, time 3 day): 0.3 mg/dL | TOTAL PROTEIN (72 h, time 3 day): 6.5 G/DL | URIC ACID (72 h, time 3 day): 2.07 mg/dL | BASOPHIL (120 h, time 5 day): 0.47% | EOSINOPHIL (120 h, time 5 day): 0.37% | ERYTHROCYTE COUNT (120 h, time 5 day): 6.72 x10E6/uL | HEMATOCRIT (120 h, time 5 day): 42.63% | HEMOGLOBIN (120 h, time 5 day): 13.57 G/DL | LEUKOCYTE COUNT (120 h, time 5 day): 7.2 x10E3/uL | LYMPHOCYTE (120 h, time 5 day): 85.43% | MEAN CORPUSCULAR HEMOGLOBIN (120 h, time 5 day): 20.17 pg | MEAN CORPUSCULAR HEMOGLOBIN CONCENTRATION (120 h, time 5 day): 31.77 G/DL | MEAN CORPUSCULAR VOLUME (120 h, time 5 day): 63.43 fL | MONOCYTE (120 h, time 5 day): 2.37% | NEUTROPHIL (120 h, time 5 day): 9.9% | PLATELET COUNT (120 h, time 5 day): 1342 x10E3/uL | ALANINE AMINOTRANSFERASE (120 h, time 5 day): 54.33 u/L | ALBUMIN (120 h, time 5 day): 4.7 G/DL | ALKALINE PHOSPHATASE (120 h, time 5 day): 407 u/L | ASPARTATE AMINOTRANSFERASE (120 h, time 5 day): 196.33 u/L | BLOOD UREA NITROGEN (120 h, time 5 day): 18.33 mg/dL | CARBON DIOXIDE (120 h, time 5 day): 26 mmol/L | CHLORIDE (120 h, time 5 day): 109.33 MEQ/L | CHOLESTEROL (120 h, time 5 day): 82.67 mg/dL | CREATINE PHOSPHOKINASE (120 h, time 5 day): 320.67 u/L | CREATININE (120 h, time 5 day): 0.33 mg/dL | GLUCOSE (120 h, time 5 day): 164.33 mg/dL | LACTATE DEHYDROGENASE (120 h, time 5 day): 81.33 u/L | LIPASE (120 h, time 5 day): 24.67 u/L | PHOSPHORUS (120 h, time 5 day): 12.87 mg/dL | POTASSIUM (120 h, time 5 day): 5.67 MEQ/L | SODIUM (120 h, time 5 day): 152.67 MEQ/L | TOTAL BILIRUBIN (120 h, time 5 day): 0.4 mg/dL | TOTAL PROTEIN (120 h, time 5 day): 7.07 G/DL | URIC ACID (120 h, time 5 day): 2.27 mg/dL | BASOPHIL ([…], time 14 day): 1.68% | EOSINOPHIL ([…], time 14 day): 0.28% | ERYTHROCYTE COUNT ([…], time 14 day): 6.33 x10E6/uL | HEMATOCRIT ([…], time 14 day): 37.84% | HEMOGLOBIN ([…], time 14 day): 12.58 G/DL | LEUKOCYTE COUNT ([…], time 14 day): 17.16 x10E3/uL | LYMPHOCYTE ([…], time 14 day): 79.3% | MEAN CORPUSCULAR HEMOGLOBIN ([…], time 14 day): 19.88 pg | MEAN CORPUSCULAR HEMOGLOBIN CONCENTRATION ([…], time 14 day): 33.26 G/DL | MEAN CORPUSCULAR VOLUME ([…], time 14 day): 59.7 fL | MONOCYTE ([…], time 14 day): 1.7% | NEUTROPHIL ([…], time 14 day): 15.34% | PLATELET COUNT ([…], time 14 day): 590 x10E3/uL | ALANINE AMINOTRANSFERASE ([…], time 14 day): 40.2 u/L | ALBUMIN ([…], time 14 day): 4.34 G/DL | ALKALINE PHOSPHATASE ([…], time 14 day): 449 u/L | ASPARTATE AMINOTRANSFERASE ([…], time 14 day): 305.8 u/L | BLOOD UREA NITROGEN ([…], time 14 day): 32.2 mg/dL | CARBON DIOXIDE ([…], time 14 day): 27.6 mmol/L | CHLORIDE ([…], time 14 day): 106 MEQ/L | CHOLESTEROL ([…], time 14 day): 46.6 mg/dL | CREATINE PHOSPHOKINASE ([…], time 14 day): 123.4 u/L | CREATININE ([…], time 14 day): 0.56 mg/dL | GLUCOSE ([…], time 14 day): 162 mg/dL | LACTATE DEHYDROGENASE ([…], time 14 day): 58 u/L | LIPASE ([…], time 14 day): 19 u/L | PHOSPHORUS ([…], time 14 day): 12.6 mg/dL | POTASSIUM ([…], time 14 day): 5.54 MEQ/L | SODIUM ([…], time 14 day): 151 MEQ/L | TOTAL BILIRUBIN ([…], time 14 day): 0.34 mg/dL | TOTAL PROTEIN ([…], time 14 day): 6.32 G/DL | URIC ACID ([…], time 14 day): 0.68 mg/dL
